In patent publication US20110217240A1, “IMAGING NEUROLEPTIC COMPOUNDS” (priority 2008, published 2011):

Tested on: apomorphine-induced dopaminergic neurotransmission
Assay: BOLD fMRI of neuronal/glial activity in conscious rats pre-treated with an antipsychotic and challenged with apomorphine
Format: in vivo, rat
Conditions: for neuronal/glial activity in the anterior thalamic nuclei / neuronal/glial activity in the pituitary gland: antipsychotic pre-treatment i.p. (chlorpromazine, clozapine, olanzapine 5 mg/kg; haloperidol 1 mg/kg)
Text: To image the brain activity of live rats (Charles River Laboratories, Wilmington, Mass.), the rats were anesthetized with 2-3% isoflurane (Abbott Laboratories, North Chicago, Ill.). Nine (9) rats were used for each experimental condition. A topical anesthetic of 10% lidocaine gel was applied to the skin and soft tissue around the ear canals and over the bridge of the nose. A plastic semi-circular headpiece with blunted ear supports that fit into the ear canals was positioned over the ears. The head was placed into a cylindrical head holder with the rat's canines secured over a bite bar and ears positioned inside the head holder with adjustable screws fitted into lateral sleeves. An adjustable, receive-only surface coil built into the head holder was pressed firmly on the head and locked into place. The body of the rat was placed into a body restrainer. The body restrainer “floats” down the center of the chassis connecting at the front and rear end-plates and buffered by rubber gaskets. The head piece locks into a mounting post on the front of the chassis. This design isolates all of the body movements from the head restrainer and minimizes motion artifact. Once the rat was positioned in the body holder, a transmit-only volume coil was slid over the head restrainer and locked into position.
When the rats were fully conscious, the restraining unit was placed into a black opaque tube mock scanner with a tape-recording of an MRI pulse sequence. This acclimation protocol lasted for 60 minutes in order to simulate the bore of the magnet and the imaging protocol. This procedure was repeated every other day for four days.
Experiments were conducted in a Bruker Biospec 4.7-T/40-cm horizontal magnet (Oxford Instrument, Oxford, U.K.) equipped with a Biospec Bruker console (Bruker, Billerica, Mass., U.S.A.) and a 20 G/cm magnetic field gradient insert (internal diameter=12 cm) capable of a 120 μs rise time (Bruker). Radiofrequency (RF) signals were sent and received with the dual coil electronics built into the animal restrainer (Ludwig et al., 2004, J. Neurosci. Methods 132(2):125-35). The volume coil for transmitting RF signal features an 8-element microstrip line configuration in conjunction with an outer copper shield. The arch-shaped geometry of the receiving surface coil provides excellent coverage and high signal-to-noise. To prevent mutual coil interference, the volume and surface coils were actively tuned and detuned.
Functional images were acquired using a multi-slice fast spin echo sequence. A single data acquisition included twelve (12), 1.2 mm slices collected in 6 seconds (field of view (FOV) 3.0 cm; data matrix 64×64; repetition time (TR) 1.43 sec, effective echo time (Eff TE) 53.3 msec, echo time (TE) 7 msec; rapid acquisition with relaxation enhancement (RARE) factor 16, number of excitations (NEX) 1). This sequence was repeated 100 times in a 10 minute imaging session, consisting of 5 minutes of baseline data followed by 5 minutes of stimulation data. At the beginning of each imaging session, a high resolution anatomical data set was collected using a RARE pulse sequence (12 slice; 1.2 mm; FOV 3.0 cm; 256×256; TR 2.1 sec; TE 12.4 msec; NEX 6; 7 minute acquisition time).
For each subject, rigid body motion in x-, y- and z-direction was computed with Stimulate software (Strupp, 1996, NeuroImage 3:S607) using center of intensity method. […] A conservative criteria of 120 μm standard deviation of motion in any direction was set as acceptance criteria.

[1] = apomorphine 20 μg/10 μl ICV, BOLD fMRI, conscious rat
[2] = then apomorphine 20 μg/10 μl ICV, BOLD fMRI, conscious rat
[3] = pre-treatment 5 mg/kg i.p., then apomorphine 20 μg/10 μl ICV, BOLD fMRI, conscious rat

| SMILES | activation of the anterior thalamic nuclei by apomorphine [1] | activation of the dorsal striatum by apomorphine [1] | activation of the pituitary gland by apomorphine [1] | activation of the mesocorticolimbic dopamine system (reward pathway) by apomorphine (apomorphine alone, 20 μg/10 μl ICV, BOLD fMRI, conscious rat) | change in BOLD signal intensity in the pituitary gland (time course following ICV administration of apomorphine (FIG. 3A)) | change in BOLD signal intensity in the anterior thalamic nuclei (time course following ICV administration of apomorphine (FIG. 3B)) | change in BOLD signal intensity in the dorsal striatum (time course following ICV administration of apomorphine (FIG. 3C)) | neuronal/glial activity in the dorsal striatum (antipsychotic pre-treatment i.p. (chlorpromazine, clozapine, olanzapine 5 mg/kg), then apomorphine 20 μg/10 μl ICV, BOLD fMRI, conscious rat) | neuronal/glial activity in the anterior thalamic nuclei [2] | neuronal/glial activity in the pituitary gland [2] | neuronal/glial activity in the CA1 region of the hippocampus [3] | neuronal/glial activity in the CA3 region of the hippocampus [3] | neuronal/glial activity in the dentate gyms region of the hippocampus [3] | neuronal/glial activity in the subiculum region of the hippocampus [3] | neuronal/glial activity throughout the hippocampus [3] |
| --- | --- | --- | --- | --- | --- | --- | --- | --- | --- | --- | --- | --- | --- | --- | --- |
| CN1CCc2cccc3c2[C@H]1Cc1ccc(O)c(O)c1-3 [apomorphine] | activated | activated | activated | activated | increased | increased | increased | – | – | – | – | – | – | – | – |
| CN(C)CCCN1c2ccccc2Sc2ccc(Cl)cc21 [chlorpromazine] | – | – | – | – | – | – | – | reduced | pronounced reduction | pronounced reduction | significant reduction in neuronal/glial activity | significant reduction in neuronal/glial activity | significant reduction in neuronal/glial activity | significant reduction in neuronal/glial activity | selective reduction in activity |
| O=C(CCCN1CCC(O)(c2ccc(Cl)cc2)CC1)c1ccc(F)cc1 [haloperidol] | – | – | – | – | – | – | – | – | reducing apomorphine-induced neuronal/glial activity | reducing apomorphine-induced neuronal/glial activity | – | – | – | – | – |
